Data on four compounds can be found in paper PMC8252726, “Automated Glycan Assembly of ^19F‐labeled Glycan Probes Enables High‐Throughput NMR Studies of Protein–Glycan Interactions” (Angewandte Chemie (International Ed. in English), 2021).

One experiment concerns the target T1, LecB (Pseudomonas aeruginosa, UniProt Q9HYN5).
T1 construct: soluble lectin
In words: […] and CPMG NMR screening. It counts as binding. The conditions noted are these: fucosylated F-glycans as a group.

The next experiment has as its target T2, BambL (Burkholderia ambifaria, UniProt Q0B4G1).
T2 construct: gene Bamb_5415; soluble lectin; 15N-labeled for TROSY
In words: […] NMR titration (ligand-observed). It counts as binding.

In the next experiment the test system is β‐galactosidase. Nature of the experiment: real-time […] NMR of product formation. It counts as biochemical. The conditions noted are these: Henry-Michaelis-Menten fit.
The target in a further experiment is T3, Pdα26ST (Photobacterium damselae, UniProt O66375).
T3 construct: gene bst
T3 sequence (O66375 16-675): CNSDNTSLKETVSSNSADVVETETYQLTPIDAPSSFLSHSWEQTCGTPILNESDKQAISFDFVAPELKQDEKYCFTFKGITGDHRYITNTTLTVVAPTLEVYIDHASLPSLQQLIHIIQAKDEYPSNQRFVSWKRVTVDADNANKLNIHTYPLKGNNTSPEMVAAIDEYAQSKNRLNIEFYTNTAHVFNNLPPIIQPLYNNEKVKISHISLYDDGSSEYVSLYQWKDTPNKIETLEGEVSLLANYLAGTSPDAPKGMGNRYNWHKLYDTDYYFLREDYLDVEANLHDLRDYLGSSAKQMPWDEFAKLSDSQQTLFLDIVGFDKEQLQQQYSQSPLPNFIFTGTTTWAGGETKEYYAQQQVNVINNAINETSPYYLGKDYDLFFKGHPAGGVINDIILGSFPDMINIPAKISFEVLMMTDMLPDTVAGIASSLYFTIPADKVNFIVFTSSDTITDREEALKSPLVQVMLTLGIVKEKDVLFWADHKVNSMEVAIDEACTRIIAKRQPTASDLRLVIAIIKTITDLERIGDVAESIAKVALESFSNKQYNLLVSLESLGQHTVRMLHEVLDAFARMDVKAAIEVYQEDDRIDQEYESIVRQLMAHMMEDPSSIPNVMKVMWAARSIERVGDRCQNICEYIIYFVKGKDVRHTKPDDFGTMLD
In words: CPMG […] NMR screening. Format: binding. To be noted: without donor CMP-Neu5Ac.

The target of another experiment is T4, Pmα23ST (Pasteurella multocida, UniProt Q15KI8).
T4 construct: gene Pm0188
T4 sequence (Q15KI8 26-412): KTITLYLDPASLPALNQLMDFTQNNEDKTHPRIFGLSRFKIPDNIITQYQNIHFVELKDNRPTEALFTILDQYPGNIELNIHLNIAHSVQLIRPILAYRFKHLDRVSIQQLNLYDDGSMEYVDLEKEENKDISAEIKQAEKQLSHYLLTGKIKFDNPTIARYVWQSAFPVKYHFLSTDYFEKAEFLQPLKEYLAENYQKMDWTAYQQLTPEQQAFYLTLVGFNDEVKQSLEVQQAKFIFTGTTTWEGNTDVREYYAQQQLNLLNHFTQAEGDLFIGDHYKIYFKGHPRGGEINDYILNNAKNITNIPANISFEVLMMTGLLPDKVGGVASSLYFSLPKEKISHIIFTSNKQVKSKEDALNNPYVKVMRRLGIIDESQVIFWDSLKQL
In words: CPMG […] NMR screening. Format: binding. The conditions noted are these: without donor; also sialylated with CMP-Neu5Ac.

T2 sequence (Q0B4G1 entry or part of it): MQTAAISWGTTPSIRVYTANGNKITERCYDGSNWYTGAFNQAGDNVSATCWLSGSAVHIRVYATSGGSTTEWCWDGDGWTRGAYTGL
T1 sequence (Q9HYN5 entry or part of it): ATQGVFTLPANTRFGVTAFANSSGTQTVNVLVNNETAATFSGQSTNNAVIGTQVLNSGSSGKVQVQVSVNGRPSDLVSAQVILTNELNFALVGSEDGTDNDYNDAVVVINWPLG

With `CC(=O)N[C@H]1[C@H](O[C@H]2[C@@H](O)[C@@H](CO)O[C@@H](O[C@H]3[C@H](F)[C@@H](O)[C@H](OCCCCCN)O[C@@H]3CO)[C@@H]2O)O[C@H](CO)[C@@H](O[C@@H]2O[C@H](CO)[C@H](O)[C@H](O)[C@H]2O[C@@H]2O[C@@H](C)[C@@H](O)[C@@H](O)[C@@H]2O)[C@@H]1O` [F‐H type 2], the “19F and CPMG NMR screening” value on LecB was “bacterial (LecA, LecB, and BambL) and mammalian (DC‐SIGN ECD) lectins preferred fucosylated glycans”. On BambL, the Kd came to 9 ± 2 µM.
Take `NCCCCCO[C@@H]1O[C@H](CO)[C@@H](O[C@@H]2O[C@H](CO)[C@H](O)[C@H](O)[C@H]2O)[C@H](F)[C@H]1O` [F‐Lac]: the Km with β‐galactosidase is 86.5 ± 10.5 µM. On Pdα26ST, the “CPMG 19F NMR screening” value was “Shorter non‐branched glycans (F‐Lac and F‐nLac4) showed stronger binding than longer branched ones”.
In turn, `CC(=O)N[C@H]1[C@H](O[C@H]2[C@@H](O)[C@@H](CO)O[C@@H](O[C@H]3[C@H](F)[C@@H](O)[C@H](OCCCCCN)O[C@@H]3CO)[C@@H]2O)O[C@H](CO)[C@@H](O[C@@H]2O[C@H](CO)[C@H](O)[C@H](O)[C@H]2O[C@@H]2O[C@@H](C)[C@@H](O)[C@@H](O)[C@@H]2O)[C@@H]1O[C@@H]1O[C@@H](C)[C@@H](O)[C@@H](O)[C@@H]1O` [F‐Le^y] showed a Kd at BambL of 14 ± 2 µM.
On to `CC(=O)N[C@H]1[C@H](O[C@H]2[C@@H](O)[C@@H](CO)O[C@@H](O[C@H]3[C@H](F)[C@@H](O)[C@H](OCCCCCN)O[C@@H]3CO)[C@@H]2O)O[C@H](CO)[C@@H](O[C@@H]2O[C@H](CO)[C@H](O)[C@H](O)[C@H]2O)[C@@H]1O` [F‐nLac4], for which the “CPMG 19F NMR screening” value on Pmα23ST is “Shorter non‐branched glycans (F‐Lac and F‐nLac4) showed stronger binding than longer branched ones”; on Pdα26ST, “Shorter non‐branched glycans (F‐Lac and F‐nLac4) showed stronger binding than longer branched ones”.
